These results are taken from patent US20250136649A1, “HONEY TRUFFLE SWEETENER (HTS) VARIANTS” (MYCOTECHNOLOGY, INC., priority 2023, published 2025).

Test [1] has as its system sweetness and flavor perception. The test is described as follows: Tasting of HTS sweetener blends in citric acid solution, lemon/lime soda, almond milk, chocolate spread. The format is in vivo, human. The method, then:
Sucrose is the standard for sweetness intensity perception in the food and beverage industry. […] With regard to the following Examples 18-38, sucrose equivalent (SE) values of non-sucrose sweeteners were calculated from Dubois et al. (1991) and cross referenced with other studies (Wee, M., Tan, V., & Forde, C. (2018). A Comparison of Psychophysical Dose-Response Behaviour across 16 Sweeteners. Nutrients, 10 (11), 1632).
DE Walters, FT Orthoefer, GE DuBois, pp. 261-276. Washington, DC: Am. Chem. Soc).
An HTS sweetness concentration response curve was developed. These values were used to determine approximate sucrose equivalents for the following blending examples (Examples 18-37).
HTS ((0.0 mg/mL, 0.007 mg/mL, 0.015 mg/mL and 0.035 mg/mL) and sucrose (8% w/w, 6% w/w, 4% w/w, and 2% w/w (respectively)) were added to a citric acid solution. The sweetener mixture was compared to a control with only sucrose added to the matrix. The sweetener mix was expected to be as sweet as or sweeter than the sucrose control for this matrix. Of total perceived sweetness intensity in each of the experimental samples in Table 11, 75% comes from sucrose and 25% comes from HTS, 50% comes from sucrose and 50% comes from HTS, 25% comes from sucrose and 75% comes from HTS, respectively.
HTS ((0.0 mg/mL, 0.008 mg/mL, 0.023 mg/mL and 0.064 mg/mL) and sucrose (10% w/w, 7.5% w/w, 5% w/w, and 2.5% w/w (respectively)) were added to a lemon/lime soda. The sweetener mixture was compared to a control with only sucrose added to the matrix. The sweetener mix was expected to be as sweet as or sweeter than the sucrose control for this matrix. Of total perceived sweetness intensity in each of the experimental samples in Table 12, 75% comes from sucrose and 25% comes from HTS, 50% comes from sucrose and 50% comes from HTS, 25% comes from sucrose and 75% comes from HTS, respectively.
HTS ((0.0 mg/mL, 0.005 mg/mL, 0.007 mg/mL and 0.010 mg/mL) and sucrose (4% w/w, 3.0% w/w, 2% w/w, and 1.0% w/w (respectively)) were added to an unsweetened almond milk. The sweetener mixture was compared to a control with only sucrose added to the matrix. The sweetener mix was expected to be as sweet as or sweeter than the control for this matrix. Of total perceived sweetness intensity in each of the experimental samples in Table 13, 75% comes from sucrose and 25% comes from HTS, 50% comes from sucrose and 50% comes from HTS, 25% comes from sucrose and 75% comes from HTS, respectively.
HTS ((0.0 mg/mL, 0.008 mg/mL, 0.023 mg/mL and 0.064 mg/mL) and sucrose (45% w/w, 33.8% w/w, 23% w/w, and 11.3% w/w (respectively)) were added to a chocolate spread. The sweetener mixture was compared to a control with only sucrose added to the matrix. The sweetener mix was expected to be as sweet as or sweeter than the control for this matrix. Of total perceived sweetness intensity in each of the experimental samples in Table 14, 75% comes from sucrose and 25% comes from HTS, 50% comes from sucrose and 50% comes from HTS, 25% comes from sucrose and 75% comes from HTS, respectively.
HTS ((0.0 mg/mL, 0.007 mg/mL, 0.015 mg/mL and 0.035 mg/mL) and erythritol (11.43% w/w, 8.57% w/w, 5.71% w/w, and 2.86% w/w (respectively)) were added to a citric acid solution. The sweetener mixture was compared to a control with only erythritol added to the matrix. The sweetener mix was expected to be as sweet as or sweeter than the control for this matrix. Of total perceived sweetness intensity in each of the experimental samples in Table 15, 75% comes from erythritol and 25% comes from HTS, 50% comes from erythritol and 50% comes from HTS, 25% comes from erythritol and 75% comes from HTS, respectively.

Another test deals with sweet taste. The note with it: cited from earlier work.
The test system of another test is sweet taste response. The test is described as follows: Concentration-response functions for sweet taste (Opertech Bio). The format is in vivo. The note with it: for Relative to Sucrose (mM): equivalency to sucrose on a molar basis; for Relative to Sucrose (mg/ml): equivalency to sucrose on a weight basis; for EC50: half-maximal sweet taste response. The method, then: Each data point in the curves for mycodulcein, aspartame, thaumatin, rebaudioside A was calculated as the average across 32 replicates and averaged across 16 replicates for the sucrose curve; error bars are SEM. Points for water and sucrose controls were similarly calculated as the average across 128 and 64 replicates, respectively. Curves were fit by non-linear regression.
Opertech Bio (Philadelphia, PA) performed a quantitative characterization of the concentration-dependence of the taste properties of the purified his-tagged mycodulcein HTS (SEQ ID NO:141 with His-tag, SEQ ID NO:142) obtained from E. coli as described in Example 5 and purified as described in Example 4. The sweet-taste potency and relative efficacy of mycodulcein (HTS) was compared with sucrose and with other sweeteners thaumatin, rebaudioside A, and aspartame. Control standards were solutions of 200 mM sucrose, 100 mM NaCl, 0.5 mM quinine, and 10 mM citric acid. […] Each data point in the curves for mycodulcein, aspartame, thaumatin, and rebaudioside A was calculated as the average across 32 replicates and averaged across 16 replicates for the sucrose curve; error bars are SEM. Points for water and sucrose controls were similarly calculated as the average across 128 and 64 replicates, respectively. Curves were fit by non-linear regression.
The concentrations that elicit half-maximal sweet taste response (EC50s, or potencies) were derived from the nonlinear regression. […] Also provided are the equivalencies to sucrose on a molar basis and on a weight basis.

Another test has as its system sweet sensation. Description: CATA time intensity of the sweet sensation in water. The class given is in vivo, human. Here is the method:
Evaluation of thaumatin, sucrose, and his-tagged mycodulcein (HTS) was carried out using a CATA (click all that apply) time intensity of the sweet sensation of named analytes in water at 0.045 mg/mL for proteins and 10% sucrose. Methodology: Time Intensity Technique; Data collection software: EyeQuestion, responses recorded every 2.57 seconds; Scaling Method: a 15-point sweet scale, e.g., score 5=5% sucrose, score 10=10% sucrose; Evaluation Protocol: small volume sip, tilt and spit test. There were 3-6 panelists and 2 replicates. All samples were blinded and presented with randomized 3-digit codes. Training Strategies: An intense training on sweet scale over 6 weeks on 15-point sweet scale to confidently assign sweet values. Due to unique sweet behavioral patterns, it is necessary to train time intensity principles over 3 weeks. Samples were tasted with a stopwatch to note times and help reach a consensus. # of Panelists: 3-6, # of replications: 2. All samples were blinded and presented with randomized 3-digit codes. Statistical analysis: due to the small # of panelists, a statistical analysis cannot be performed.

[2] abbreviates: nonlinear regression, read-out: EC50 (molar units).

Like-named read-outs stand apart in the source and are kept apart here.

For `OC[C@H]1O[C@@](CO)(O[C@H]2O[C@H](CO)[C@@H](O)[C@H](O)[C@H]2O)[C@@H](O)[C@@H]1O` [SUC, sucrose], the Observations result in test [1] (almond milk, sucrose w/w / HTS mg/mL: control 4%/0.0, 75/25 3.0%/0.005, 50/50 2%/0.007, 25/75 1.0%/0.010) is “Pleasantly sweetened almond milk, creamy”; in test [1] (citric acid solution, sucrose w/w / HTS mg/mL: control 8%/0.0, 75/25 6%/0.007, 50/50 4%/0.015, 25/75 2%/0.035), “Reminiscent of sweet dessert and ice”; in test [1] (lemon/lime soda, sucrose w/w / HTS mg/mL: control 10%/0.0, 75/25 7.5%/0.008, 50/50 5%/0.023, 25/75 2.5%/0.064), “Good, sweet to sour balance and pleasant”.

Regarding `O=C(CO)C(O)C(O)C(O)CO` (stereo not drawn) [Allulose, allulose], in test [1] (lemon/lime soda, allulose w/w / HTS mg/mL: control 14.3%/0.0, 50/50 7.14%/0.023), the Observations result is “Muted citrus flavor and sweetness intensity”. Moreover, in the test with sweet taste (linear potency curve similar to sucrose (DuBois 1991)), the “potency curve multiplier relative to sucrose” value is given as 0.7 ×.

As for monellin, the “times sweeter than sucrose on a molar basis” value with sweet taste (background) is 100,000 times.

With “brazzein (QDKCKKVYENYPVSKCQLANQCNYDCKLDKHARSGECFYDEKRNLQCICDYCEY; UniProt P56552 1-54, looked up) [sweet protein]”, the “times sweeter than sucrose on a gram basis” value with sweet taste (background) is given as 500 times.

Usually EC50 stands for the midpoint of the concentration-response curve. In the case of thaumatin [THN], in the test on sweet taste response, the “Relative to Sucrose (mM)” value was 120000, the “Relative to Sucrose (mg/ml)” value was 1865 and the “EC50” value amounted to 6.6 µg/mL. In addition, in the test on sweet taste response (setting [2]), the EC50 worked out at 0.3 µM. Besides, the “times sweeter than sucrose on a gram basis” value with sweet taste (background) is given as 3000 times. In addition, in the test on sweet sensation (0.045 mg/mL in water), the “intensity when sucrose reaches threshold level” value was “low-moderate intensity”. The “slope of time intensity curve” value in the test on sweet sensation (0.045 mg/mL in water vs 10% sucrose, longer peak time and more gradual/longer decline) was “flatter slope”. For the same compound, in the test on sweet sensation (0.045 mg/mL protein in water vs 10% sucrose), the “maximum intensity (Imax) higher than sucrose” value is on record as “approximately 1 point on the 15 point scale”. Moreover, in the test with sweet sensation (time intensity experiment), the “potency, sweeter than sucrose on a molar basis” value is recorded as “approximately 120,000 ×” and the “potency, sweeter than sucrose on a weight basis” value is recorded as ~3000 ×.

`C=C1C[C@@]23CC[C@H]4[C@@](C)(CCC[C@@]4(C)C(=O)O[C@@H]4O[C@H](CO)[C@@H](O)[C@H](O)[C@H]4O)[C@@H]2CC[C@]1(O[C@@H]1O[C@H](CO)[C@@H](O)[C@H](O[C@@H]2O[C@H](CO)[C@@H](O)[C@H](O)[C@H]2O)[C@H]1O[C@@H]1O[C@H](CO)[C@@H](O)[C@H](O)[C@H]1O)C3` [REB, rebaudioside A]: in the test on sweet taste response, the “Relative to Sucrose (mM)” value worked out at 857, the “Relative to Sucrose (mg/ml)” value came out at 300 and the “EC50” value was 41.1 µg/mL. The concentration giving a half-maximal response (EC50) with sweet taste response (setting [2]) is 42 µM.
